Results reported in patent US5376673A, “Isoindoles having cardiovascular activity” (Italfarmaco S.p.A., priority 1991, dated 1994).

Key:
[1] = test system: rabbit aorta; assay: In vitro vasorelaxing activity (aorta strip contracted with noradrenaline); settings: Oryctolagus cuniculus, contraction induced by noradrenaline
Experimental: The vasorelaxing activity of the compounds of the invention was determined on rabbit aorta which had been contracted with noradrenaline, according to the method described in Eur. J. Pharmacol, 141, 195 (1987).
IC50 = concentration of active substance, expressed in mole/liter,
able to inhibit by 50% the contraction of the aorta "strip" induced by […]

[2] = test system: Sprague Dawley anaesthetized rats; assay: Vasopressine angina in the anaesthetized rat (in vivo antianginal activity); set-up: species or system Sprague Dawley rat; settings: 3 mg/kg by gastric gavage, 1 hour before Arg-vasopressin i.v.
Experimental: The in vivo antianginal activity was evidenced on Sprague Dawley anaesthetized rats, weighing 350-400 g, operating according to the procedure of M. Leitold et al., Arzneim. Forsch. 36, 1454, 1986. The test was carried out administering the animal intravenously with 1 I. U./kg, equivalent to […] of Arg-vasopressin, which induces a coronary spasm which can be reproduced and evidenced electrocardiographycally with an increase in the amplitude of the T wave. The compounds of the invention were admininistered by gastric gavage at a dose of 3 mg/kg, 1 hour before administration of Argvasopressin. The antianginal effect was expressed as percent inhibition of the T wave increase versus controls.

Structure (SMILES)	IC50 [1] [µM]	Effect (percent inhibition of the T wave increase versus controls) [2] [%]
CCCC(=O)OC1c2ccccc2C(=O)N1CCO[N+](=O)[O-] (centres unmarked) [Example 3]	2.4	-55.2
CC(=O)OC1c2ccccc2C(=O)N1CCO[N+](=O)[O-] (centres unmarked) [Example 2, 3-Acetoxy-2-(2-nitrooxyethyl)-1-oxoisoindolin]	1.2	–
O=C(OC1c2ccccc2C(=O)N1CCO[N+](=O)[O-])c1ccccc1 (centres unmarked) [Example 4, 3-Benzoyloxy-2-(5-nitrooxyethyl)-1-oxoisoindolin]	3.2	-34.5

Second part, led by results:

IC50 [1] [µM]	Structure (SMILES)	Effect (percent inhibition of the T wave increase versus controls) [2] [%]
1.3	O=C1c2ccccc2C(O)N1CCO[N+](=O)[O-] (centres unmarked) [Example 1, 3-Hydroxy-2-(2-nitrooxyethyl)-1-oxoisoindolin]	-56.1
13	O=C1c2ccccc2C(O)N1CCCCCO[N+](=O)[O-] (centres unmarked) [Example 5, 3-Hydroxy-2-(5-nitrooxypentyl)-1-oxoisoindolin]	–
